In brackets after ≈: the same amount, converted by molar mass. Like-named read-outs stand apart in the source and are kept apart here.
What was measured:
Assay type in all cases: cell-based
[1] = test system: macrophage J774 cells line; assay: Cytotoxicity assay (MTT) in macrophage J774 cells; conditions: J774 cells, 24 hrs, MTT
Method: (§1) The study was carried out using macrophage J774 cells line (ATCC-USA). Cells were grown in Rosewell Park Memorial Institute Medium (RPMI) containing 10% fetal calf serum (FCS) and supplemented with 75 mg/liter penicillin, 100 mg/liter streptomycin, 110 mg/liter Sodium pyruvate, 2.38 gm/liter HEPES, 0.05 mM 2 β-mercaptoethanol, and 2 gm/liter NaHCO3, in a humidified atmosphere in 5% CO2 at 37° C., and were sub-cultured at 1:4 ratio once a week.
(§2) Cells were plated at a density of 3×10^4 cells/cm^2 and maintained in culture medium for 12 hours. Cells were seeded onto 96-well flat bottom plates and FCS was reduced to 5% for the experiment. Stock solutions of compounds IA1 to IIC10 were prepared fresh to avoid oxidation. Cells were incubated with the compounds (40 μg/ml) for 24 hrs.
(§3) After the completion of incubation, the medium was removed and cell viability was evaluated by assaying for the ability of functional mitochondria to catalyze the reduction of 3-(4,5-dimethylthiazol-2-yl)-2,5-diphenyltetrazolium bromide (MTT) to form formazan salt by mitochondrial dehydrogenases, and determined by Elisa reader at 450 nm (Multiskan Spectrum; Thermo Electron Corporation, USA). Percentage cytotoxicity was calculated with respect to the untreated cells.

[2] = Cytotoxicity assay (MTT) in macrophage J774 cells; conditions: mouse, J774 macrophage cells; also called safety index
Method: as §1, §2, §3

[3] = test system: M. tuberculosis H37Rv (ATCC 27294); assay: MIC by broth dilution method, M. tuberculosis H37Rv; conditions: Mycobacterium tuberculosis
[4] = 504 h, broth dilution, 3 weeks, read-out: MIC M. tb H37Rv
[5] = read-out: MIC value, text summary: sensitive H37Rv as well as MDR and XDR strains of M. tuberculosis

| Compound | Cytotoxicity [1] [µg/mL] | selectivity ratio at 24 h, 40 μg/ml [2] | MIC [3, 4] [µg/mL] | MIC [3, 5] [µg/mL] | MIC ([3]; 504 h, read-out: MIC M. tb H37Rv, broth dilution, 3 weeks) [µg/mL] |
| --- | --- | --- | --- | --- | --- |
| CCCCCc1cn(-c2ccc(OC[C@@]3(C)Cn4cc([N+](=O)[O-])nc4O3)cc2)nn1 [IA15, (R)-2-{4-[4-pentyl-1H-1,2,3-triazol-1-yl]phenoxymethyl}-2,3-dihydro-2-methyl-6-nitroimidazo[2,1-b]oxazole] | >40 | > 10 | 32 (≈ 77.6 µM) |  |  |
| C[C@]1(COc2ccccc2-n2cc(-c3ccc(F)cc3F)nn2)Cn2cc([N+](=O)[O-])nc2O1 [IA24, (R)-2-{2-[4-(2,4-difluorophenyl)-1H-1,2,3-triazol-1-yl]phenoxymethyl}-2,3-dihydro-2-methyl-6-nitroimidazo[2,1-b]oxazole] | >40 | > 10 | 1 (≈ 2.2 µM) |  |  |
| C[C@]1(COc2ccc(-n3cc(COc4ccc(F)cc4)nn3)cc2)Cn2cc([N+](=O)[O-])nc2O1 [IA26] | >40 | > 10 | 0.5 (≈ 1.07 µM) | < 1 |  |
| C[C@]1(COc2ccc(-n3cc(COc4ccc(C(F)(F)F)cc4)nn3)cc2)Cn2cc([N+](=O)[O-])nc2O1 [IA27] | >40 | > 10 | 0.25 (≈ 0.484 µM) | < 1 |  |
| C[C@]1(COc2ccc(-n3cc(COc4ccccc4F)nn3)cc2)Cn2cc([N+](=O)[O-])nc2O1 [IA28] | >40 | > 10 | 0.12 (≈ 0.257 µM) | < 1 |  |
| Cc1ccc(OCc2cn(-c3ccc(OC[C@@]4(C)Cn5cc([N+](=O)[O-])nc5O4)cc3)nn2)cc1 [IA29] | >40 | > 10 | 32 (≈ 69.2 µM) |  |  |
| CC(C)c1ccc(OCc2cn(-c3ccc(OC[C@@]4(C)Cn5cc([N+](=O)[O-])nc5O4)cc3)nn2)cc1 [IA30] | >40 | > 10 | 32 (≈ 65.2 µM) |  |  |
| CCc1ccc(OCc2cn(-c3ccc(OC[C@@]4(C)Cn5cc([N+](=O)[O-])nc5O4)cc3)nn2)cc1 [IA31] | >40 | > 10 | 0.25 (≈ 0.525 µM) | < 1 |  |
| CCC(C)c1ccc(OCc2cn(-c3ccc(OC[C@@]4(C)Cn5cc([N+](=O)[O-])nc5O4)cc3)nn2)cc1 (some centres unmarked) [IA32] | >40 | > 10 | 0.12 (≈ 0.238 µM) | < 1 |  |
| C[C@]1(COc2cccc(-n3cc(COc4ccc(F)cc4)nn3)c2)Cn2cc([N+](=O)[O-])nc2O1 [IA34] | >40 | > 10 | 0.12 (≈ 0.257 µM) | < 1 |  |
| C[C@]1(COc2ccccc2-n2cc(COc3ccc(OC(F)(F)F)cc3)nn2)Cn2cc([N+](=O)[O-])nc2O1 [IA39] | >40 | > 10 | 1 (≈ 1.88 µM) |  |  |
| C[C@]1(COc2ccccc2-n2cc(COc3ccc(F)cc3)nn2)Cn2cc([N+](=O)[O-])nc2O1 [IA40] | >40 | > 10 | 4 (≈ 8.58 µM) |  |  |
| C[C@]1(COc2ccccc2-n2cc(COc3ccc(C(F)(F)F)cc3)nn2)Cn2cc([N+](=O)[O-])nc2O1 [IA41] | >40 | > 10 | 2 (≈ 3.87 µM) |  |  |
| C[C@]1(COc2ccccc2-n2cc(COc3ccccc3F)nn2)Cn2cc([N+](=O)[O-])nc2O1 [IA42] | >40 | > 10 | 2 (≈ 4.29 µM) |  |  |
| C[C@]1(COc2ccc(-c3cc(-c4ccccc4)on3)cc2)Cn2cc([N+](=O)[O-])nc2O1 [IC1, (R)-2-{4-[5-phenylisoxazol-3-yl]phenoxymethyl}-2,3-dihydro-2-methyl-6-nitroimidazo[2,1-b]oxazole] | >40 | > 10 |  | < 1 | 0.06 (≈ 0.143 µM) |
| CCc1ccc(-c2cc(-c3ccc(OC[C@@]4(C)Cn5cc([N+](=O)[O-])nc5O4)cc3)no2)cc1 [IC2, (R)-2-{4-[5-(4-ethylphenyl)isoxazol-3-yl]phenoxymethyl}-2,3-dihydro-2-methyl-6-nitroimidazo[2,1-b]oxazole] | >40 | > 10 | 2 (≈ 4.48 µM) |  |  |
| C[C@]1(COc2ccc(-c3cc(-c4ccc(F)cc4F)on3)cc2)Cn2cc([N+](=O)[O-])nc2O1 [IC3, (R)-2-{4-[5-(2,4-difluorophenyl)isoxazol-3-yl]phenoxymethyl}-2,3-dihydro-2-methyl-6-nitroimidazo[2,1-b]oxazole] | >40 | > 10 | 0.25 (≈ 0.55 µM) | < 1 |  |
| C[C@]1(COc2ccc(-c3cc(-c4ccccc4F)on3)cc2)Cn2cc([N+](=O)[O-])nc2O1 [IC4, (R)-2-{4-[5-(2-fluorophenyl)isoxazol-3-yl]phenoxymethyl}-2,3-dihydro-2-methyl-6-nitroimidazo[2,1-b]oxazole] | >40 | > 10 | 2 (≈ 4.58 µM) |  |  |
| C[C@]1(COc2ccc(-c3cc(-c4ccc(C(F)(F)F)cc4)on3)cc2)Cn2cc([N+](=O)[O-])nc2O1 [IC5, (R)-2-{4-[5-(4-trifluoromethylphenyl)isoxazol-3-yl]phenoxymethyl}-2,3-dihydro-2-methyl-6-nitroimidazo[2,1-b]oxazole] | >40 | > 10 | 1 (≈ 2.06 µM) |  |  |
| Cc1ccc(-c2cc(-c3ccc(OC[C@@]4(C)Cn5cc([N+](=O)[O-])nc5O4)cc3)no2)cc1 [IC6, (R)-2-{4-[5-(4-methylphenyl)isoxazol-3-yl]phenoxymethyl}-2,3-dihydro-2-methyl-6-nitroimidazo[2,1-b]oxazole] | >40 | > 10 | 1 (≈ 2.31 µM) |  |  |
| COc1ccc(-c2cc(-c3ccc(OC[C@@]4(C)Cn5cc([N+](=O)[O-])nc5O4)cc3)no2)cc1 [IC7, (R)-2-{4-[5-(4-methoxyphenyl)isoxazol-3-yl]phenoxymethyl}-2,3-dihydro-2-methyl-6-nitroimidazo[2,1-b]oxazole] | >40 | > 10 | 0.5 (≈ 1.11 µM) | < 1 |  |
| C[C@]1(COc2ccc(-c3cc(-c4ccc(OC(F)(F)F)cc4)on3)cc2)Cn2cc([N+](=O)[O-])nc2O1 [IC10, (R)-2-{4-[5-(4-trifluoromethoxyphenyl)isoxazol-3-yl]phenoxymethyl}-2,3-dihydro-2-methyl-6-nitroimidazo[2,1-b]oxazole] | >40 | > 10 | 0.5 (≈ 0.995 µM) | < 1 |  |
| CCCCCc1cc(-c2ccc(OC[C@@]3(C)Cn4cc([N+](=O)[O-])nc4O3)cc2)no1 [IC11, (R)-2-{4-[5-pentylisoxazol-3-yl]phenoxymethyl}-2,3-dihydro-2-methyl-6-nitroimidazo[2,1-b]oxazole] | >40 | > 10 | 32 (≈ 77.6 µM) |  |  |
| CCCCCCCc1cc(-c2ccc(OC[C@@]3(C)Cn4cc([N+](=O)[O-])nc4O3)cc2)no1 [IC12, (R)-2-{4-[5-heptylisoxazol-3-yl]phenoxymethyl}-2,3-dihydro-2-methyl-6-nitroimidazo[2,1-b]oxazole] | >40 | > 10 | 2 (≈ 4.54 µM) |  |  |
| C[C@]1(COc2ccc(-c3cc(COc4ccc(C(F)(F)F)cc4)on3)cc2)Cn2cc([N+](=O)[O-])nc2O1 [IC15, (R)-2-{4-[5-(4-trifluoromethylphenoxymethyl)isoxazol-3-yl]phenoxymethyl}-2,3-dihydro-2-methyl-6-nitroimidazo[2,1-b]oxazole] | >40 | > 10 | 0.25 (≈ 0.484 µM) | < 1 |  |
| C[C@]1(COc2ccc(-c3cc(COc4ccccc4F)on3)cc2)Cn2cc([N+](=O)[O-])nc2O1 [IC16, (R)-2-{4-[5-(2-fluorophenoxymethyl)isoxazol-3-yl]phenoxymethyl}-2,3-dihydro-2-methyl-6-nitroimidazo[2,1-b]oxazole] | >40 | > 10 | 0.5 (≈ 1.07 µM) | < 1 |  |
| Cc1ccc(OCc2cc(-c3ccc(OC[C@@]4(C)Cn5cc([N+](=O)[O-])nc5O4)cc3)no2)cc1 [IC17, (R)-2-{4-[5-(4-methylphenoxymethyl)isoxazol-3-yl]phenoxymethyl}-2,3-dihydro-2-methyl-6-nitroimidazo[2,1-b]oxazole] | >40 | > 10 | 0.5 (≈ 1.08 µM) | < 1 |  |
| CC(C)c1ccc(OCc2cc(-c3ccc(OC[C@@]4(C)Cn5cc([N+](=O)[O-])nc5O4)cc3)no2)cc1 [IC18, (R)-2-{4-[5-(4-isopropylphenoxymethyl)isoxazol-3-yl]phenoxymethyl}-2,3-dihydro-2-methyl-6-nitroimidazo[2,1-b]oxazole] | >40 | > 10 | 0.25 (≈ 0.51 µM) | < 1 |  |
